Data published in US20200291018A1, “TAM KINASE INHIBITORS” (SYROS PHARMACEUTICALS, INC., priority 2017, published 2020).

Columns and labels:
[1] = molecular target: T1, TYRO3 (Homo sapiens, UniProt Q06418); assay: TR-FRET kinase activity assay, TYRO3; type: biochemical; conditions: ATP at Km, 60 minutes
T1 sequence (Q06418 41-890): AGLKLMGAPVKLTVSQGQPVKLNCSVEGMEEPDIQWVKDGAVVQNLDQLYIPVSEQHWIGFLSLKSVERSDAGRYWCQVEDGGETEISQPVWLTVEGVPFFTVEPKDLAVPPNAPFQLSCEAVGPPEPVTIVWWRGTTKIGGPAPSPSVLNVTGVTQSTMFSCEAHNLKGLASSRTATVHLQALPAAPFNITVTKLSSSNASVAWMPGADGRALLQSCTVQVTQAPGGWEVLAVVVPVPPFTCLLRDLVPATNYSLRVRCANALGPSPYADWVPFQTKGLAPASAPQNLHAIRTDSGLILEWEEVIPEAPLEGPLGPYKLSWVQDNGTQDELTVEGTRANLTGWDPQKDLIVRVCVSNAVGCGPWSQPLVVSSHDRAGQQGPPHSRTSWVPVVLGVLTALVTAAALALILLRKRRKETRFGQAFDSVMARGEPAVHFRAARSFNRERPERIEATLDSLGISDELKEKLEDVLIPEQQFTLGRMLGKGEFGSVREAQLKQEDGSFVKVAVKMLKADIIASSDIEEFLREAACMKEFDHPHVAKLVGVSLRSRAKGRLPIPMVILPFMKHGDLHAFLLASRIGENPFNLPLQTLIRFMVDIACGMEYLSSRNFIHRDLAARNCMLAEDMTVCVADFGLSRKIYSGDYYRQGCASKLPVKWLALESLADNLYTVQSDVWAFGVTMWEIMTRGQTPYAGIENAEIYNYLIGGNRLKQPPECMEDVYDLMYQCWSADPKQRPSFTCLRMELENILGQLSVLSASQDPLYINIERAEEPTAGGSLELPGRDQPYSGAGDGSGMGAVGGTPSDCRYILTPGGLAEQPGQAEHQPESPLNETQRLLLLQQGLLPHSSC
Method in brief: (§1)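 Enzyme, fluorescent-labeled peptide substrate and compound were mixed, then ATP was added at each enzyme's Km. Buffer was 50 mM HEPES pH 7.5, 10 mM MgCl2, 1 mM EGTA, 0.01% Brij 35, 1 mM DTT at RT. After 60 min, EDTA quench and 30 min with Eu-anti-phosphotyrosine-site antibody; TR-FRET read gave IC50.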

[2] = molecular target: T2, MERTK (Homo sapiens, UniProt Q12866); assay: TR-FRET kinase activity assay, MERTK; type: biochemical; conditions: for IC50: TR-FRET activity assay, ATP at Km, 60 minutes, read-out: Mer IC50; for Mer/Flt3 ratio (FLT3 IC50/Mer IC50): ratio calculated as FLT3 IC50/Mer IC50
T2 sequence (Q12866 21-999): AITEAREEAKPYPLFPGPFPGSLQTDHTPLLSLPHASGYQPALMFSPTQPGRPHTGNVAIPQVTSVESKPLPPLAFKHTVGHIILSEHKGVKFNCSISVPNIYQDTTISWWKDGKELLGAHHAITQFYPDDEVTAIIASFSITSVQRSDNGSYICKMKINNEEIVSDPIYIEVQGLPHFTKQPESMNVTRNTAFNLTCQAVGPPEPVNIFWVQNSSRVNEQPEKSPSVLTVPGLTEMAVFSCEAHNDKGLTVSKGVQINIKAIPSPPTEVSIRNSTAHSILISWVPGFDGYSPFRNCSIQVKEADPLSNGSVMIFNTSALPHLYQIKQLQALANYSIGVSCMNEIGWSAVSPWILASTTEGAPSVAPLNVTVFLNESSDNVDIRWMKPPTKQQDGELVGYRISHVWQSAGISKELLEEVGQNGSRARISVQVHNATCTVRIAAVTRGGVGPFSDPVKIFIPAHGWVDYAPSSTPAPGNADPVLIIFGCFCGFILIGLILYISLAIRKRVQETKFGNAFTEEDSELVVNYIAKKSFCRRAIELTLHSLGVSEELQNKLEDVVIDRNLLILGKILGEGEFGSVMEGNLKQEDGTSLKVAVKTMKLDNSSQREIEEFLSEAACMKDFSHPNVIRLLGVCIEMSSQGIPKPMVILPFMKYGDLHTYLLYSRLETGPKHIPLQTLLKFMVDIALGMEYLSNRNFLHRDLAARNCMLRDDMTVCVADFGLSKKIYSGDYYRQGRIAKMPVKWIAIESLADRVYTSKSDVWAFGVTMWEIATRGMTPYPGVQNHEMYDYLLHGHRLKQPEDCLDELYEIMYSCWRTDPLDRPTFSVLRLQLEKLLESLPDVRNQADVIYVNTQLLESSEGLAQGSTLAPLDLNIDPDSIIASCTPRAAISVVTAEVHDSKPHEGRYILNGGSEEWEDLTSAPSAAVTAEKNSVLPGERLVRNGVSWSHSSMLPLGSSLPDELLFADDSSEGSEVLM
Method in brief: as §1

| Structure (SMILES) | IC50 [1] [nM] | IC50 [2] [nM] | Mer/Flt3 ratio (FLT3 IC50/Mer IC50) [2] |
| --- | --- | --- | --- |
| CCC(CC)Nc1ncc2c(=O)n(C3CCNCC3)cc([C@H]3CC[C@H](O)CC3)c2n1 [Compound 120] | ≤ 100 | ≤ 100 | +++ (a ratio of >100) |
| COC[C@H](C)Nc1ncc2c(OC3CCOCC3)ncc([C@H]3CC[C@H](O)CC3)c2n1 [Compound 122, (1S,4r)-4-(2-(((S)-1-methoxypropan-2-yl)amino)-5-((tetrahydro-2H-pyran-4-yl)oxy)pyrido[4,3-d]pyrimidin-8-yl)cyclohexan-1-ol] | 100 to 1000 | ≤ 100 | +++ (a ratio of >100) |
| CCCCNc1ncc2c(NC3CCOCC3)ncc([C@H]3CC[C@H](O)CC3)c2n1 [Compound 124] | ≤ 100 | ≤ 100 | + (a ratio of >2.0 and <10) |
| CCCCNc1ncc2c(OCCOC)ncc([C@H]3CC[C@H](O)CC3)c2n1 [Compound 125] | 1000 to 10000 | ≤ 100 | NS (a ratio of ≤2.0) |
| CCC[C@H](C)Nc1ncc2c(=O)n(C3CCNCC3)cc([C@H]3CC[C@H](O)CC3)c2n1 [Compound 126] | ≤ 100 | ≤ 100 | +++ (a ratio of >100) |
| COCCN1C(C)(C)CC(Oc2ncc([C@H]3CC[C@H](O)CC3)c3nc(N[C@@H](C)CC(F)(F)F)ncc23)CC1(C)C [Compound 355] | ≤ 100 | ≤ 100 | +++ (a ratio of >100) |
| Cc1ncc([C@H]2CC[C@H](O)CC2)c2nc(N[C@@H](C)CC(F)(F)F)ncc12 [Compound 356] | ≤ 100 | ≤ 100 | +++ (a ratio of >100) |
| COC[C@H](C)Nc1ncc2c(O[C@H]3CCOC3)ncc([C@H]3CC[C@H](O)CC3)c2n1 [Compound 357] | 100 to 1000 | ≤ 100 | +++ (a ratio of >100) |
| COC[C@H](C)Nc1ncc2c(OC3CCOCC3)ncc(C3CCC(F)(F)CC3)c2n1 [Compound 358] | 100 to 1000 | ≤ 100 | ++ (a ratio of between 10 and 100) |
| CCOc1ncc([C@H]2CC[C@H](O)CC2)c2nc(N[C@@H](C)CC(F)(F)F)ncc12 [Compound 359] | ≤ 100 | ≤ 100 | +++ (a ratio of >100) |
| C[C@@H](CC(F)(F)F)Nc1ncc2c(O[C@H]3C[C@@H](O)C3)ncc([C@H]3CC[C@H](O)CC3)c2n1 [Compound 360] | ≤ 100 | ≤ 100 | +++ (a ratio of >100) |
| COC[C@H](C)Nc1ncc2c(OC3CC(C)(C)N(C(C)=O)C(C)(C)C3)ncc([C@H]3CC[C@H](O)CC3)c2n1 [Compound 361] | 100 to 1000 | ≤ 100 | +++ (a ratio of >100) |
| COC[C@H](C)Nc1ncc2c(Nc3ccncc3)ncc([C@H]3CC[C@H](O)CC3)c2n1 [Compound 362] | 100 to 1000 | ≤ 100 | +++ (a ratio of >100) |
| COC[C@H](C)Nc1ncc2c(Nc3cccnc3)ncc([C@H]3CC[C@H](O)CC3)c2n1 [Compound 363] | ≤ 100 | ≤ 100 | +++ (a ratio of >100) |
| C[C@@H](CC(F)(F)F)Nc1ncc2c(O[C@H]3C[C@H](O)C3)ncc([C@H]3CC[C@H](O)CC3)c2n1 [Compound 364] | ≤ 100 | ≤ 100 | +++ (a ratio of >100) |
| C[C@H](Nc1ncc2c(OC3CCOCC3)ncc([C@H]3CC[C@H](O)CC3)c2n1)C(F)F [Compound 365] | ≤ 100 | ≤ 100 | +++ (a ratio of >100) |
| COC[C@H](C)Nc1ncc2c(O[C@@H]3CCN(C)C3)ncc([C@H]3CC[C@H](O)CC3)c2n1 [Compound 366] | 100 to 1000 | ≤ 100 | +++ (a ratio of >100) |
| CC[C@@H](C)Nc1ncc2c(OC3CC(C)(C)N(C)C(C)(C)C3)ncc([C@H]3CC[C@H](O)CC3)c2n1 [Compound 367] | ≤ 100 | ≤ 100 | +++ (a ratio of >100) |
| COC[C@H](C)Nc1ncc2c(O[C@H]3CCN(C)C3)ncc([C@H]3CC[C@H](O)CC3)c2n1 [Compound 368] | ≤ 100 | ≤ 100 | +++ (a ratio of >100) |
| COCCN1CCC(Oc2ncc([C@H]3CC[C@H](O)CC3)c3nc(N[C@@H](C)CC(F)(F)F)ncc23)CC1 [Compound 369] | ≤ 100 | ≤ 100 | +++ (a ratio of >100) |
| C[C@@H](CC(F)(F)F)Nc1ncc2c(OC3C[C@H]4CC[C@@H](C3)N4C)ncc([C@H]3CC[C@H](O)CC3)c2n1 (stereo partly drawn) [Compound 370] | ≤ 100 | ≤ 100 | +++ (a ratio of >100) |
| COC[C@H](C)Nc1ncc2c(OC3C[C@@H](C)N(C)[C@@H](C)C3)ncc([C@H]3CC[C@H](O)CC3)c2n1 (stereo partly drawn) [Compound 371] | ≤ 100 | ≤ 100 | +++ (a ratio of >100) |
| COC[C@H](C)Nc1ncc2c(Nc3ccnc(C)c3)ncc([C@H]3CC[C@H](O)CC3)c2n1 [Compound 372] | 100 to 1000 | ≤ 100 | +++ (a ratio of >100) |
| C[C@@H](CC(F)(F)F)Nc1ncc2c(OC3CCN(c4ncccn4)CC3)ncc([C@H]3CC[C@H](O)CC3)c2n1 [Compound 373] | ≤ 100 | ≤ 100 | +++ (a ratio of >100) |
| COC[C@H](C)Nc1ncc2c(Nc3ccc(C)nc3)ncc([C@H]3CC[C@H](O)CC3)c2n1 [Compound 374] | ≤ 100 | ≤ 100 | +++ (a ratio of >100) |
| Cc1nccc(N2CCC(Oc3ncc([C@H]4CC[C@H](O)CC4)c4nc(N[C@@H](C)CC(F)(F)F)ncc34)CC2)n1 [Compound 375] | ≤ 100 | ≤ 100 | +++ (a ratio of >100) |
